How the values were obtained:
Type in all cases: functional, cell-based
MG-63 = test: Cytotoxicity against human MG63 cells by MTT colorimetric method
LoVo = test: Cytotoxicity against human LoVo cells by MTT colorimetric method
A549 = test: Cytotoxicity against human A549 cells by MTT colorimetric method

SMILES | IC50 (MG-63) | IC50 (LoVo) | IC50 (A549)
COc1cc(OC)c2c(c1)C(=O)[C@@H]1C[C@@H](O)C[C@@]2(O)[C@@H]1CO | > 97.4 µM | > 97.4 µM | > 97.4 µM
COc1cccc2c1C(=O)c1c(O)c3c(c(O)c1C2=O)C[C@@](O)(C(=O)CO)C[C@@H]3O[C@H]1C[C@H](N)[C@H](O)[C@H](C)O1 [DOXORUBICIN] | 2.7 µM | 2.7 µM | –
